# Where a name gives a salt, the structure may show the parent alone. Read-outs that look alike come from different tables or passages of the source.
# Key:
# [1] = cited from earlier work; for anti-senile dementia activity: Int. J. Clin. Pharmacol. Ther. Toxicol. 29, 23-37, 1991
# Acetylcholinesterase = molecular target: T1, Acetylcholinesterase (Rattus norvegicus, UniProt P37136); test: biochemical; design: species or system male Wistar rat
# T1 construct: using the S1 fraction of a male Wistar rat cerebral cortex homogenate as a source of cholinesterase; from tissue; host or cells: male Wistar rat cerebral cortex homogenate, S1 fraction
# T1 sequence (P37136 32-614): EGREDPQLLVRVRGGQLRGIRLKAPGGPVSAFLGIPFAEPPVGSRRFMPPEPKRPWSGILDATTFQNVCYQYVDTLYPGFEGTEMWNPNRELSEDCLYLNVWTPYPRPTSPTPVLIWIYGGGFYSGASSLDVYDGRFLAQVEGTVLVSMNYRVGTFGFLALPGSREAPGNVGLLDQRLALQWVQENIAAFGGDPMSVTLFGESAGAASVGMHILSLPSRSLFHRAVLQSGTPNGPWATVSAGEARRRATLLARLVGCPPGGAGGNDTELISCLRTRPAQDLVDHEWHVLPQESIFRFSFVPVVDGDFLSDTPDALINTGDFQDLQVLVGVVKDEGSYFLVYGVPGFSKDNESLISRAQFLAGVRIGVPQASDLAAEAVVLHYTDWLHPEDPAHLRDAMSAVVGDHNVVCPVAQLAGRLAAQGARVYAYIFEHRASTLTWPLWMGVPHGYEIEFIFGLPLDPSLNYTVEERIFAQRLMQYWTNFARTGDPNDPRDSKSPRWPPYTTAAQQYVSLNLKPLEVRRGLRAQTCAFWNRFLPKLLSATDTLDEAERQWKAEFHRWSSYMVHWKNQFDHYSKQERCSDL
# Description: The cholinesterase inhibitory activity of the compound of this invention was evaluated using (acetyl[[^3 H])-acetylcholine. Thus, using the S1 fraction of a male Wistar rat cerebral cortex homogenate as a source of cholinesterase, (acetyl[^3 H])-acetylcholine as a substrate, and the compound of this invention as a test substance, the system was incubated for 30 minutes. The reaction was then stopped and a toluenic scincillator was added. After shaking, [^3 H]-acetic acid produced and transferred into the toluene layer was counted with a liquid scincillation counter to estimate the cholinesterase inhibitory activity of the test substance.
# [2] = test system: norepinephrine (NE) reuptake; test: monoamine reuptake inhibitory activity, [^3 H]-norepinephrine (NE); type: biochemical, male JCl: Wistar rats; details: [^3 H]-NE 11 nM; P2 pellet of rat cerebral cortex and hippocampus; 37° C., 5 minutes; read-out: Monoamine uptake inhibitory activity IC50, NE
# Description: (§1) The monoamine reuptake inhibitory activity of the compound of this invention was evaluated using [^3 H]-norepinephrine (NE) and [^3 H]-serotonin(5-HT).
# (§2) Thus, the brain was enuleated from male JCl: Wistar rats (aged 9-13 weeks) and the cerebral cortex and the hippocampus were isolated. The tissue was homogenized (Potter, 5 strokes) with about 10-15 volumes of ice-cooled 0.32M sucrose and centrifuged at 1.000×g for 10 minutes. The supernatant was further centrifuged at 20,000×g for 20 minutes to provide a pellet (P2). This pellet was suspended in Krebs-Ringer bicarbonate solution (KRB) (KRB: 116 mM NaCl, 4.8 mM KCl, 1.3 mM CaCl2, 1,2 mM MgSO4, 1,2 mM NaH2 PO4, 25 mM NaHCO3, 0.1 mM EDTA-2Na, 11.1 mM D-glucose, 0.11 mM L-ascorbic acid, 0.01 mM pargyline-HCl; 95% O2 /5% CO2) and aliquots of the suspension were used for assays.
# (§3) The test compound (10 μl as dissolved in DMSO at 100 times the final concentration) was mixed with 900 μl of the P2 suspension and the mixture was preincubated at 37° C. for 5 minutes. Then, 100 μl of [^3 H]-NE (final concentration 11 nM) or [^3 H]-5-HT (final concentration 10 nM) was added and the mixture was incubated at 37° C. for 5 minutes. […] The filter was transferred to a minature vial, 4 ml of scintillator was added, and the radioactivity was counted with a liquid scintillation counter. […]
# [3] = test system: serotonin (5-HT) reuptake; test: monoamine reuptake inhibitory activity, [^3 H]-serotonin (5-HT); type: biochemical, male JCl: Wistar rats; details: [^3 H]-5-HT 10 nM; P2 pellet of rat cerebral cortex and hippocampus; 37° C., 5 minutes; read-out: Monoamine uptake inhibitory activity IC50, 5-HT
# Description: as §1, §2, §3
# [4] = S1 fraction of male Wistar rat cerebral cortex homogenate, 30 minutes incubation, read-out: Acetylcholinesterase inhibitory activity IC50
smiles,measurement,setting,value
"CNC(=O)Oc1ccc2c(c1)[C@]1(C)CCN(C)[C@@H]1N2C (stereo in doubt) [Physostigmine, physostigmine]",anti-senile dementia activity,[1],have been found to have anti-senile dementia activity
same,duration of action,[1]; background,short duration of action
same,toxic potential,[1]; background,high toxic potential
"O=C(CCN1CCN(Cc2ccccc2)CC1)c1cc2c3c(c1)C1CCCCC1N3C(=O)CC2 (stereo not drawn) [Example 1, 5-[3-[4-(Phenylmethyl)-1-piperazinyl]-1-oxopropyl]-2,3,6b,7,8,9,10,10a-octahydro-1H-pyrido[3,2,1-jk]carbazol-6-one dihydrochloride]",IC50,Acetylcholinesterase; [4],77.5 nM
O=C(CCN1CCN(Cc2ccccc2)CC1)c1ccc2c(c1)CN1C(=O)c3ccccc3C1CC2 (stereo not drawn) [Example 2-1],IC50,Acetylcholinesterase; [4],16.4 nM
same,IC50,[2],1040 nM
same,IC50,[3],70 nM
"O=C(CCC1CCN(Cc2ccccc2)CC1)c1ccc2c(c1)CN1C(=O)c3ccccc3C1CC2 (stereo not drawn) [Example 4, 3-[3-[1-(Phenylmethyl)-4-piperidinyl]-1-oxopropyl]-7,11b,12,13-tetrahydro-5H-isoindolo[2,1-b][2]benzazepin-7-one hydrochloride]",IC50,Acetylcholinesterase,2.4 nM
O=C(CCN1CCN(Cc2cccc(Cl)c2)CC1)c1ccc2c(c1)CN1C(=O)c3ccccc3C1CC2 (stereo not drawn) [Example 6-2],IC50,Acetylcholinesterase; [4],65.5 nM
O=C(CCN1CCN(Cc2cccc(F)c2)CC1)c1ccc2c(c1)CN1C(=O)c3ccccc3C1CC2 (stereo not drawn) [Example 6-3],IC50,Acetylcholinesterase; [4],17.4 nM
"O=C(CCC1CCN(Cc2ccccc2)CC1)c1cc2c3c(c1)C1CCCCC1N3C(=O)CC2 (stereo not drawn) [Example 7, 5-[3-[1-(Phenylmethyl)-4-piperidinyl]1-oxopropyl]-2,3,6b, 7,8,9,10,10a-octahydro-1H-pyrido[3,2,1-jk]carbazol-6-one fumarate]",IC50,Acetylcholinesterase,7.93 nM
"CN(C)CCCN1c2ccccc2CCc2ccccc21 [Imipramine, imipramine, reference compound]",IC50,[2],1120 nM
same,IC50,[3],63 nM
"Nc1c2c(nc3ccccc13)CCCC2 [THA, tacrine]",anti-senile dementia activity,[1],have been found to have anti-senile dementia activity
same,hepatic impairment,[1]; background,severe hepatic impairment is often associated
